According to article PMC6248945, “Antibacterial properties of the pituitary adenylate cyclase-activating polypeptide: A new human antimicrobial peptide” (PLoS ONE, 2018):
Read-outs that look alike come from different tables or passages of the source. Where a SMILES comes first, the peptide text is derived from it. Where no end group is shown, it is not given here.

Assays:
Escherichia coli (JM109) = experiment: MIC, CLSI microdilution; assay type: cell-based; details: MHB, 37 °C, 20h, OD read-out, at least triplicate
[1] = tested on: Pseudomonas putida (KT2440); details: 20 h
[2] = tested on: Pseudomonas fluorescens (MF37); details: 20 h
[3] = tested on: Pseudomonas aeruginosa (PA14); details: PA14, 20 h
[4] = tested on: Burkholderia cenocepacia (J2315); details: 20 h
[5] = tested on: Burkholderia thailendensis (ATCC700388); details: CLSI microdilution, MHB, 37 °C, 20h, OD read-out; at least triplicate
[6] = tested on: Serratia marcescens (ATCC14756); details: ATCC14756, 20 h
[7] = tested on: Bacillus circulans (LSPQ3543); details: 20 h
[8] = tested on: Bacillus cereus (ATCC11778); details: ATCC11778, 20 h
[9] = tested on: Actinobacillus pleuropneumoniae (4074); details: 20 h
Bacillus subtilis (PY79) = details: PY79, 20 h
Bacillus velezensis = details: 20 h
[10] = tested on: Bacillus amyloliquefaciens (LMG22478); details: LMG22478, 20 h
[11] = tested on: Staphylococcus aureus (ATCC6538#P); details: ATCC6538, 20 h
[12] = tested on: Staphylococcus aureus (Newman); details: 20 h
[13] = tested on: various bacterial strains; details: CLSI microdilution
human PAC1 receptor = molecular target: T1, human PAC1 receptor (Homo sapiens, UniProt P41586); experiment: Radioligand binding assay, 125I-Ac-PACAP27
T1 construct: expressed in transfected cells
T1 sequence (P41586 21-468): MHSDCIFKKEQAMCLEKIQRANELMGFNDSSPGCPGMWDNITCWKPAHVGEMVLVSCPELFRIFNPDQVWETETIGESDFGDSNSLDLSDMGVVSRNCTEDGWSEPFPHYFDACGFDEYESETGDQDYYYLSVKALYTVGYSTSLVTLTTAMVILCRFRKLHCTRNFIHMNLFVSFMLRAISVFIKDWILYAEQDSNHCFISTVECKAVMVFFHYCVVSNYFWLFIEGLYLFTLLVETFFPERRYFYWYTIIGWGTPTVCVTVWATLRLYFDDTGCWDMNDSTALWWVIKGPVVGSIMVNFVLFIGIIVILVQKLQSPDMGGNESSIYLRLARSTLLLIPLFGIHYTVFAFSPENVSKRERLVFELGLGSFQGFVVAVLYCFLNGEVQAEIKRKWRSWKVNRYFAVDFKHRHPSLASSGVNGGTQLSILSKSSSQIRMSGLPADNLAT

human VPAC1 receptor = molecular target: T2, human VPAC1 receptor (Homo sapiens, UniProt P32241); experiment: Radioligand binding assay, 125I-Ac-PACAP27
T2 construct: expressed in transfected cells
T2 sequence (P32241 31-457): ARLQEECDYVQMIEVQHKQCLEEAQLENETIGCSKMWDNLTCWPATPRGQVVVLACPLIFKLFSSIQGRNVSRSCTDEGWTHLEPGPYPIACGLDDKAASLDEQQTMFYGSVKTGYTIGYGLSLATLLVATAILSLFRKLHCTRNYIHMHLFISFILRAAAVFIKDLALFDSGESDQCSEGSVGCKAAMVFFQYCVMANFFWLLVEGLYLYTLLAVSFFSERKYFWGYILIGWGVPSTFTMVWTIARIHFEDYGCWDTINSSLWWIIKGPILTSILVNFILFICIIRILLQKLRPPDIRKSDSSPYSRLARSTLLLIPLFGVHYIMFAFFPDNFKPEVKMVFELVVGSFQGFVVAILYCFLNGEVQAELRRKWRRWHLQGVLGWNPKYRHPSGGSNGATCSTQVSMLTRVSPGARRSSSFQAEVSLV
Experimental: (§1) Chinese hamster ovary (CHO) cells stably and individually expressing human receptor PAC1, VPAC1 or VPAC2 were grown in Ham’s F12 medium supplemented with 10% of fetal bovine serum (FBS), 2 mM L-glutamine, 100 UI/mL of penicillin and streptomycin (P/S) and 400 μg/mL of G418. The cell line was maintained at 37 °C in a humidified atmosphere of 5% CO2 and passages were performed by trypsinization when cells reached about 80% confluence.
(§2) Acetylated PACAP27 was radioiodinated using the chloramine-T oxidation technique and purified on a Sep-Pak C18 cartridge (Waters, Milford, MA, USA). Binding assays were performed using CHO cells stably transfected with the human PAC1, VPAC1 or VPAC2 receptor isoform. Cells were seeded at a density of 150,000 cells/well in 24-well plates. The next day, cells were washed with binding buffer (0.1% BSA, 25 mM Tris–HCl, 25 mM MgCl2, pH 7.4) for 10 min at room temperature. The solution was replaced with a fresh solution containing 0.05 nM of ^125I-Ac-PACAP27 and increasing concentrations of peptide (10^−14 to 10^-5M). After 2h of incubation at room temperature, cells were washed twice with the binding buffer and then lysed with sodium hydroxide (0.1 M). Cell-bound radioactivity was quantified using a γ-counter. Results were expressed as percentage of specific binding of ^125I-Ac-PACAP27.

human VPAC2 receptor = molecular target: T3, human VPAC2 receptor (Homo sapiens, UniProt P41587); experiment: Radioligand binding assay, 125I-Ac-PACAP27; details: CHO cells expressing human VPAC2, 0.05 nM 125I-Ac-PACAP27, 2h, room temperature
T3 construct: expressed in transfected cells
T3 sequence (P41587 24-438): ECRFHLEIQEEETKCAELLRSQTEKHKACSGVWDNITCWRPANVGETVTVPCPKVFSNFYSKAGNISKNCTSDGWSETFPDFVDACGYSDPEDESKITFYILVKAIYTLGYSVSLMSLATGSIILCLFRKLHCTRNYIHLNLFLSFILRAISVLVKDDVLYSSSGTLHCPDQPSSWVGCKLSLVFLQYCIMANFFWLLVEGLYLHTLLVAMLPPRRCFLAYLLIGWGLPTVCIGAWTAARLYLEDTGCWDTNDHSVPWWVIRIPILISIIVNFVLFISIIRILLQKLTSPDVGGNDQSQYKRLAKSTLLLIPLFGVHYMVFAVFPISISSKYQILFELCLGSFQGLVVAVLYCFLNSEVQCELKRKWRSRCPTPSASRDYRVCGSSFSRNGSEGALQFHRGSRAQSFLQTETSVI
Experimental: as §1, §2

Red blood cells = experiment: Haemolytic activity; assay type: cell-based; details: human red blood cells in PBS, 30 min or 3h, 37°C; at 45 μg/mL (PACAP38) or 37 μg/mL (PACAP(9–38)); absorbance 545 nm; 3 independent experiments in triplicate
Experimental: All experimental procedures were performed in accordance with regulations and ethical guidelines and approved by the institutional committee of the Institut National de la Recherche Scientifique-Institut Armand-Frappier. Blood from healthy human volunteers was collected into sodium citrate-buffered vacutainers. Blood donations were obtained from informed and consenting individuals according to institutionally approved procedures. Red blood cells were pelleted (700 x g; 10 min), washed three times with 9 volumes of PBS by centrifugation (700 x g; 10 min), and then resuspended in PBS. […] PBS-incubated red blood cells were considered as negative control and maximum lysis of erythrocytes was obtained by incubating the cells with 0.1% (v/v) Triton X-100. At the end of the incubation period, cells were pelleted (700 x g, 10 min) and 100 μL of each supernatant was used to evaluate the release of hemoglobin by measuring the absorbance at 545 nm. Results were obtained from 3 independent experiments performed in triplicate.

CHO-K1 = details: various eukaryotic cells including CHO-K1; cited from earlier work
From the text: This peptide, well known for its pleiotropic activities in human, mediates its biological activities through the activation of three G protein-coupled receptors, named PAC1, VPAC1, and VPAC2[8]. […] The ...

Compound: CC[C@H](C)[C@H](NC(=O)CNC(=O)[C@H](CC(=O)O)NC(=O)[C@H](CO)NC(=O)[C@@H](N)Cc1c[nH]cn1)C(=O)N1Cc2ccccc2C[C@H]1C(=O)N[C@H](C(=O)N[C@@H](CC(=O)O)C(=O)N[C@@H](CO)C(=O)N[C@@H](Cc1ccc(O)cc1)C(=O)N[C@@H](CO)C(=O)N[C@@H](CCCNC(=N)N)C(=O)N[C@@H](Cc1ccc(O)cc1)C(=O)N[C@@H](CCCNC(=N)N)C(=O)N[C@@H](CCCCN)C(=O)N[C@@H](CCC(N)=O)C(=O)N[C@@H](CCSC)C(=O)N[C@@H](C)C(=O)N[C@H](C(=O)N[C@@H](CCCCN)C(=O)N[C@@H](CCCCN)C(=O)N[C@@H](Cc1ccc(O)cc1)C(=O)N[C@@H](CC(C)C)C(=O)N[C@@H](C)C(=O)N[C@@H](C)C(=O)N[C@H](C(=O)N[C@@H](CC(C)C)C(N)=O)C(C)C)C(C)C)[C@@H](C)O [compound 8, [Tic^6]PACAP27]
- MIC, Escherichia coli (JM109) (Escherichia coli (JM109)): >160 µg/mL
- MIC, Pseudomonas putida (KT2440) [1]: >160 µg/mL
- MIC, Pseudomonas fluorescens (MF37) [2]: >160 µg/mL
- MIC, Pseudomonas aeruginosa (PA14) [3]: >160 µg/mL
- MIC, Burkholderia cenocepacia (J2315) [4]: >160 µg/mL
- MIC, Burkholderia thailendensis (ATCC700388) [5]: >160 µg/mL
- MIC, Serratia marcescens (ATCC14756) [6]: >160 µg/mL
- MIC, Bacillus circulans (LSPQ3543) [7]: >160 µg/mL
- MIC, Bacillus cereus (ATCC11778) [8]: >160 µg/mL
- MIC, Actinobacillus pleuropneumoniae [9]: >160 µg/mL
- MIC, Bacillus subtilis (PY79) (Bacillus subtilis (PY79)): >160 µg/mL
- MIC, Bacillus velezensis (Bacillus velezensis): >160 µg/mL
- MIC, Bacillus amyloliquefaciens [10]: >160 µg/mL
- MIC, Staphylococcus aureus (ATCC6538#P) [11]: >160 µg/mL
- MIC, Staphylococcus aureus (Newman) [12]: >160 µg/mL
- MIC (ability to reduce bacterial growth, tested strains) [13]: > 160 µg/mL

Compound: CSCC[C@H](NC(=O)[C@H](CCC(N)=O)NC(=O)[C@H](CCCCN)NC(=O)[C@H](CCCN=C(N)N)NC(=O)[C@H](Cc1ccc(O)cc1)NC(=O)[C@H](CCCN=C(N)N)NC(=O)[C@H](CO)NC(=O)[C@H](Cc1ccc(O)cc1)NC(=O)[C@@H](N)CO)C(=O)N[C@@H](C)C(=O)N[C@H](C(=O)N[C@@H](CCCCN)C(=O)N[C@@H](CCCCN)C(=O)N[C@@H](Cc1ccc(O)cc1)C(=O)N[C@@H](CC(C)C)C(=O)N[C@@H](C)C(=O)N[C@@H](C)C(=O)N[C@H](C(=O)N[C@@H](CC(C)C)C(=O)NCC(=O)N[C@@H](CCCCN)C(=O)N[C@@H](CCCN=C(N)N)C(=O)N[C@@H](Cc1ccc(O)cc1)C(=O)N[C@@H](CCCCN)C(=O)N[C@@H](CCC(N)=O)C(=O)N[C@@H](CCCN=C(N)N)C(=O)N[C@H](C(=O)N[C@@H](CCCCN)C(=O)N[C@@H](CC(N)=O)C(=O)N[C@@H](CCCCN)C(N)=O)C(C)C)C(C)C)C(C)C [compound 10, PACAP(9–38)] (H-SYSRYRKQMAVKKYLAAVLGKRYKQRVKNK-NH2)
- IC50 (human PAC1 receptor): > 1000 nM
- IC50 (human PAC1 receptor; PAC1 pIC50, CHO cells expressing human PAC1, 0.05 nM 125I-Ac-PACAP27, 2h, room temperature): 1350 nM
- IC50 (human VPAC1 receptor): > 1000 nM
- IC50 (human VPAC1 receptor; VPAC1 pIC50, CHO cells expressing human VPAC1, 0.05 nM 125I-Ac-PACAP27, 2h, room temperature): 5130 nM
- IC50 (human VPAC2 receptor; 95% confidence limits in parentheses): > 1000 nM
- IC50 (human VPAC2 receptor; read-out: VPAC2 pIC50 (converted)): 1700 nM
- Haemolytic activity (Red blood cells): do not exert a very significant haemolytic activity

Compound: [Arg^17]PACAP(11–38) (SRYRKQRAVKKYLAAVLGKRYKQRVKNK; ends and bridges not checked; UniProt P18509 142-169, looked up, variant M17R)
- Cytotoxic effect (CHO-K1): no cytotoxic effect
